Data: ChEMBL document CHEMBL1201862, “PubChem BioAssay data set” (2004)
Active and inactive are the calls of the source.

Assays:
[1] = target: T1, Rac GTPase-activating protein 1 (Homo sapiens, UniProt Q9H0H5); assay: blockers of MgcRacGAP-driven Rac1 GTP hydrolysis – biochemical, ADP Hunter fluorescence, primary and confirmatory, confirmation (AID 624330); format: functional
T1 sequence (Q9H0H5 whole entry): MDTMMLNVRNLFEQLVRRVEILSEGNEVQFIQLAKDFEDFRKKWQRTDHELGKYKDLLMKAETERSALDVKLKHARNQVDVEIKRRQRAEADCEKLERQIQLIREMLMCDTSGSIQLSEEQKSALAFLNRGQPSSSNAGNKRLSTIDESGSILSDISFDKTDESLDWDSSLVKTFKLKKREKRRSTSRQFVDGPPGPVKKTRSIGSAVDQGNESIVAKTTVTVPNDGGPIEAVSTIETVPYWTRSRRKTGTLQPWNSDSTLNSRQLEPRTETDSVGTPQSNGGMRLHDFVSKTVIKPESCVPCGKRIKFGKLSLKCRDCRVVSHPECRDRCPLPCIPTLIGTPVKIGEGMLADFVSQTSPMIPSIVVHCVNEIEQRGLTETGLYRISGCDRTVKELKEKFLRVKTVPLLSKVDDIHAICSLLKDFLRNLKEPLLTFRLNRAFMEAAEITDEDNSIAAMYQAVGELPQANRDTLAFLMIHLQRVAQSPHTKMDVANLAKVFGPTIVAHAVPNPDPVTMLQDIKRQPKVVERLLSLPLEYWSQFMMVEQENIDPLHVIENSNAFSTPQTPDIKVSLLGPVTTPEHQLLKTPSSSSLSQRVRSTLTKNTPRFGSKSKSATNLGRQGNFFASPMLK

HeLa = assay: viability loss in HeLa cells – cell-based, 24 h, cherry-picked samples, cytotoxicity control, dose response (AID 504726); format: functional; settings: Homo sapiens;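 also: potency for cytotoxicity as loss of luminescence signal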
[2] = fluconazole-exposed Candida albicans growth modulators – fluorescence, retest, confirmation (AID 2467); format: functional, cell-based
Protein Tat = target: T2, Protein Tat (Human immunodeficiency virus type 1 group M subtype B (isolate HXB2)(HIV-1), UniProt P04608); format: functional;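 also: tat binding to TAR RNA read out by fluorescence polarization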
T2 sequence (P04608 whole entry): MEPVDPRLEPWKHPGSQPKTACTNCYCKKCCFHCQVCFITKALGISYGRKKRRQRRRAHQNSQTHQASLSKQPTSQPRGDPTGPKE

[3] = target: T3, 1-phosphatidylinositol 4,5-bisphosphate phosphodiesterase beta-3 (Homo sapiens, UniProt Q01970); assay: Fluorescence-based biochemical high throughput dose response assay to identify inhibitors of phospholipase C isozymes (PLC-B3).
T3 sequence (Q01970 whole entry): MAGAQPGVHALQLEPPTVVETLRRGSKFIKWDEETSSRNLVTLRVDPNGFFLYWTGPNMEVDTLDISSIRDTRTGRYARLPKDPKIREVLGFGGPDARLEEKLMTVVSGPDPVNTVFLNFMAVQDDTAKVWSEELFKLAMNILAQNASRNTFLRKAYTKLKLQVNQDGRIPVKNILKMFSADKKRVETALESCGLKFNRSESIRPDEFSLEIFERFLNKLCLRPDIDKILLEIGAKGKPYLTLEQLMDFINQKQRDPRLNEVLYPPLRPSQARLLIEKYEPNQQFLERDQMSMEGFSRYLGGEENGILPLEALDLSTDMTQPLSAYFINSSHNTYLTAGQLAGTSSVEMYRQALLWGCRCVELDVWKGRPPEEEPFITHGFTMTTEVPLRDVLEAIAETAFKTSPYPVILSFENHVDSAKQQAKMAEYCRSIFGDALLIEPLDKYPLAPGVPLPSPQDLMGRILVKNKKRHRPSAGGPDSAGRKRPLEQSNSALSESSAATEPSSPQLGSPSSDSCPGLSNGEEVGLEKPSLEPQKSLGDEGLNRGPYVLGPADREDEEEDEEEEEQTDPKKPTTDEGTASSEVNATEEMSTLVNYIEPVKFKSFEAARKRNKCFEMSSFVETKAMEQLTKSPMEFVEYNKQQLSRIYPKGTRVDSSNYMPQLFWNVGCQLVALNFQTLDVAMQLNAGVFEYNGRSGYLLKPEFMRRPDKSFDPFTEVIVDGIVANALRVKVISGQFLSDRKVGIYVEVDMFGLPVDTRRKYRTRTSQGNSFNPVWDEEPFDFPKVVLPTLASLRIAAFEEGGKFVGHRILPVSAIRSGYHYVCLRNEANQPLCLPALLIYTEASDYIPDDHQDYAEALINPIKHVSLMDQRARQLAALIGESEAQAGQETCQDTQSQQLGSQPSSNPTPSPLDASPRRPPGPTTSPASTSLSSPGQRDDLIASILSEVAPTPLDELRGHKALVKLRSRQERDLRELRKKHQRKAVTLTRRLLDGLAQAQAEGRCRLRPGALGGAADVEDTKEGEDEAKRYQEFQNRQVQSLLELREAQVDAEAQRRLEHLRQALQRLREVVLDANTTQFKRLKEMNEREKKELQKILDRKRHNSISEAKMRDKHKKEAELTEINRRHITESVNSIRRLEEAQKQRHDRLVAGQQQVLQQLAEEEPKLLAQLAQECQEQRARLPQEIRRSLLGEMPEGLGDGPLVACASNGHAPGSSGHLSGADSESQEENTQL

[4] = target: T4, Alkaline phosphatase, tissue-nonspecific isozyme (Homo sapiens, UniProt P05186); assay: TNAP enzyme inhibition by screening hits, dose response, selectivity assay for mouse IAP inhibitor project, biochemical, human TNAP, uHTS hits (AID 488906); format: functional
T4 sequence (P05186 whole entry): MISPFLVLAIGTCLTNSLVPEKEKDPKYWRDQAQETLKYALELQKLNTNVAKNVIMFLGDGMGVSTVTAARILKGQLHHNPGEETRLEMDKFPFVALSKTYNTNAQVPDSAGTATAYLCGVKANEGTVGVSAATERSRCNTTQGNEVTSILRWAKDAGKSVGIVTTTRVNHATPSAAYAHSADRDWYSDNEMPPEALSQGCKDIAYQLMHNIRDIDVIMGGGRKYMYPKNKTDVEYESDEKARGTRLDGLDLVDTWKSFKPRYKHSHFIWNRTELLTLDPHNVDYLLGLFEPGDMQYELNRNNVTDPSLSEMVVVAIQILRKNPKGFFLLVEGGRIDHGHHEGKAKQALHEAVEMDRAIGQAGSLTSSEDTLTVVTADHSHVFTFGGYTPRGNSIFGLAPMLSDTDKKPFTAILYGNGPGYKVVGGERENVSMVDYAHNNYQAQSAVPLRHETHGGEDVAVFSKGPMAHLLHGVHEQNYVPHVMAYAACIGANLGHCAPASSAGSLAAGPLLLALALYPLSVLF

Which IC50 [1] does the source give for `O=C(O)c1cc(N2N=C(C(F)(F)F)/C(=C/C=C/c3ccco3)C2=O)ccc1Cl` here?
The IC50 was 10.6 µM (active).

What about the AC50 (HeLa) of the same compound?
Its AC50 is 24.9 µM (active).

With `CNCc1ccccc1Sc1ccc(O)c(O)c1` as the compound, how does the EC50 [2] read?
Its EC50 is > 38 µM (not active).

What about the IC50 (Protein Tat) of the same compound?
Its IC50 is > 100 µM (active).

With `O=C(/C=C/c1ccco1)NC(=S)Nc1cccc(C(=O)O)c1` as the compound, how does the IC50 [3] read?
Its IC50 is > 122 µM (inactive).

And the IC50 [4]?
The IC50 was 76.1 µM (active).
